Measured values reported in patent US20230219939A1, “N-(1-CYANO-PYRROLIDIN-3-YL)-5-(3-(TRIFLUOROMETHYL)PHENYL)OXAZOLE-2-CARBOXAMIDE DERIVATIVES AND THE CORRESPONDING OXADIAZOLE DERIVATIVES AS USP30 INHIBITORS FOR THE TREATMENT OF MITOCHONDRIAL DYSFUNCTION” (MISSION THERAPEUTICS LIMITED, priority 2020, published 2023).
Where “and” joins values, the source holds several entries; their conditions need not be identical. Equal values may be shown once. Read-outs that look alike come from different tables or passages of the source.

Experiments:
[1] = test system: TOM20 ubiquitylation; test: TOM20-ubiquitylation assay; assay type: cell-based, human; details: Antimycin A/oligomycin mitophagy trigger
Excerpt: Human cell lines can be challenged with mitochondrial depolarizing agents (ionophores (eg. CCCP, valinomycin), mitochondrial complex inhibitors (oligomycin, antimycin A)) to induce ubiquitylation of TOM20, which is then further promoted in the presence of USP30 inhibitors. TOM20 ubiquitylation is subsequently assessed through western blotting of the cell lysates, with TOM20 ubiquitylation adduct detection possible due to an 8 kDa molecule weight increase for each molecule of ubiquitin added, resulting in laddering of a TOM20 immunoreactive band. TOM20-ubiquitylation levels can be quantified using chemiluminescence densitometry of laddered immunoreactive bands.

[2] = Mouse plasma stability; assay type: in vitro ADME
[3] = test system: P-glycoprotein (human MDR1); test: MDR1-MDCK flux assay; assay type: in vitro ADME, Canine; details: dog, read-out: MDR1-MDCK Effective efflux ratio
Excerpt: The treatment of CNS disorders, including Alzheimer's disease, Parkinson's disease, and other disorders described herein, requires drug molecules to target the brain, which requires adequate penetration of the blood brain barrier. […] The probability that a compound can cross the blood brain barrier may be measured by an in vitro flux assay utilizing a MDR1-MDCK cell monolayer (Madin-Darby Canine Kidney cells transfected with MDR-1 resulting in overexpression of the human efflux transporter P-glycoprotein). Additionally, exposure may also be measured directly in brain and plasma using in vivo animal models.
MDR1-MDCK (Madin-Darby Canine Kidney cell monolayer) (in vitro) flux assay.

[4] = molecular target: Cathepsin S (Homo sapiens, UniProt P25774); test: Cathepsin S IC50; assay type: biochemical
Chain of Cathepsin S (P25774 115-331, species assumed): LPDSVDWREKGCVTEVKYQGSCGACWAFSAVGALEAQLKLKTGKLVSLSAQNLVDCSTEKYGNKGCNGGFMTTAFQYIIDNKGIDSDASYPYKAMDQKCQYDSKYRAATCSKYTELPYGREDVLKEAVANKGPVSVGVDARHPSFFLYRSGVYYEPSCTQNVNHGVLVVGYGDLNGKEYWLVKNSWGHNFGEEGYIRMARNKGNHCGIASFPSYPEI

[5] = WT-MDCK (wild-type) in vitro flux; assay type: in vitro ADME; details: dog
Excerpt: WT-MDCK (wild-type) in vitro flux.

[6] = molecular target: Cathepsin B (Homo sapiens, UniProt P07858); test: Cathepsin B IC50; assay type: biochemical
[7] = molecular target: T1, Cathepsin K (Homo sapiens, UniProt P43235); test: Cathepsin K IC50; assay type: biochemical
T1 sequence (P43235 115-329): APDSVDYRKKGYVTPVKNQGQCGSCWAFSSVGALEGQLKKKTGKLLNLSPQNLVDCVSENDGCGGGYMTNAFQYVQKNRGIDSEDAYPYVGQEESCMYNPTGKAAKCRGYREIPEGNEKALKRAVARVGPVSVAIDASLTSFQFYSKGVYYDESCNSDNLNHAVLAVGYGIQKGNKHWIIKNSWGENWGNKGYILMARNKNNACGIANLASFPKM

[8] = molecular target: Cathepsin V (Homo sapiens, UniProt O60911); test: Cathepsin V IC50; assay type: biochemical
Chain of Cathepsin V (O60911 114-334, species assumed): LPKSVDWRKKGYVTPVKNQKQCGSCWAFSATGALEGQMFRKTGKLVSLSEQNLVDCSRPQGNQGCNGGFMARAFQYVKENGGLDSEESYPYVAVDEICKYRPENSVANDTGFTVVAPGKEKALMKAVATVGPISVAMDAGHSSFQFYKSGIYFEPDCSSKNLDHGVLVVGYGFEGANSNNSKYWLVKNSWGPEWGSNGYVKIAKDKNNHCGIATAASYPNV

[9] = molecular target: T2, USP30 (Homo sapiens, UniProt Q70CQ3); test: USP30 biochemical IC50 assay (fluorescence polarisation)
T2 construct: purchased Boston Biochem E582
T2 sequence (Q70CQ3 57-517 limits assumed): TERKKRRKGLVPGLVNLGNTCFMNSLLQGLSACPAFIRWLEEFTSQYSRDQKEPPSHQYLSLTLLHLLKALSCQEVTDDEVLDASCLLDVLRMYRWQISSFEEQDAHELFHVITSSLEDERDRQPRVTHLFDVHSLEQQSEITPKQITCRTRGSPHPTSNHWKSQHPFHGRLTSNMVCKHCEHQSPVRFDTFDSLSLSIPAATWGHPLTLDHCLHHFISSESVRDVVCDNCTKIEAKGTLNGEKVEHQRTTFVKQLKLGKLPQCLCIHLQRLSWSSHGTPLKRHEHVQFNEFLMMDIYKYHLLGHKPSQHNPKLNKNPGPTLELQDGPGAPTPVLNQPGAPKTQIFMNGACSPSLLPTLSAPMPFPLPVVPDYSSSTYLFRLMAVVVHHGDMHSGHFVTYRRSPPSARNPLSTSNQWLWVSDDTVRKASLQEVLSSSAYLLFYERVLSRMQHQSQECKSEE
Experimental: Dilution plates were prepared at 21 times the final concentration (2100 μM for a final concentration of 100 μM) in 50% DMSO in a 96-well polypropylene V-bottom plate (Greiner #651201). A typical 8-point dilution series would be 100, 30, 10, 3, 1, 0.3, 0.1, 0.03 μM final. Reactions were performed in duplicate in black 384 well plates (small volume, Greiner 784076) in a final reaction volume of 21 μl. Either 1 μl of 50% DMSO or diluted compound was added to the plate. USP30 (Boston Biochem #E582) was diluted in reaction buffer (40 mM Tris, pH 7.5, 0.005% Tween 20, 0.5 mg/ml BSA, 5 mM beta-mercaptoethanol) to achieve a final assay concentration of 4 nM, and 10 μl of diluted USP30 was added to the compound. Enzyme and compound were incubated for 30 min at room temp. Reactions were initiated by the addition of 50 nM of TAMRA labelled peptide linked to ubiquitin via an iso-peptide bond as fluorescence polarisation substrate. Reactions were read immediately after addition of substrate and following a 2-hour incubation at room temperature. Readings were performed on a Pherastar Plus (BMG Labtech). λ Excitation 540 nm; λ Emission 590 nm.

## COC[C@@H]1C[C@@H](NC(=O)c2ncc(-c3cccc(C(F)(F)F)c3)o2)CN1C#N [Example 1, N-((3R,5S)-1-Cyano-5-(methoxymethyl)-pyrrolidin-3-yl)-5-(3-(trifluoromethyl)phenyl)oxazole-2-carboxamide]
[1]
  TOM20-Ub 1.5-fold gain EC1.5x: 0.020 µM
[2]
  plasma stability compared to Reference Example B (in words): significantly improved plasma stability
[2]; mouse plasma, read-out: Stability Mouse plasma t1/2
  half-life: 5.98 h
[3]
  efflux ratio: 1.2
[4]
  IC50: 138 µM
[5]
  efflux ratio: 0.8
[5]; A-B
  Papp A→B: 11.8 ×10⁻⁶ cm/s
[6]
  IC50: 122 µM
[7]
  IC50: 10.2 µM
[8]
  IC50: 105 µM
[9]; USP30 biochemical IC50 assay, read-out: USP30 IC50
  IC50: 0.009 µM
[9]; read-out: DUB IC50 (μM) USP30
  IC50: 0.009 µM and 0.004 to 0.033 µM
